From ChEMBL document CHEMBL4507280 (2021)

What was measured:
[1] = molecular target: Tyrosine-protein kinase BTK (Homo sapiens) (UniProt Q06187); conditions: Compound concentration 1000.0 nM
[2] = molecular target: Calcium/calmodulin-dependent protein kinase type II subunit alpha (Homo sapiens) (UniProt Q9UQM7); conditions: Compound concentration 1000.0 nM
[3] = molecular target: Calcium/calmodulin-dependent protein kinase type II subunit gamma (Homo sapiens) (UniProt Q13555); conditions: Compound concentration 1000.0 nM
[4] = molecular target: Cyclin-dependent kinase 2 (Homo sapiens) (UniProt P24941); conditions: Compound concentration 1000.0 nM
[5] = molecular target: Cyclin-dependent kinase 3 (Homo sapiens) (UniProt Q00526); conditions: Compound concentration 1000.0 nM
[6] = molecular target: Cyclin-dependent kinase 4 (Homo sapiens) (UniProt P11802); conditions: Compound concentration 1000.0 nM
Cyclin-dependent kinase 4 (Homo sapiens), sequence (P11802 whole entry): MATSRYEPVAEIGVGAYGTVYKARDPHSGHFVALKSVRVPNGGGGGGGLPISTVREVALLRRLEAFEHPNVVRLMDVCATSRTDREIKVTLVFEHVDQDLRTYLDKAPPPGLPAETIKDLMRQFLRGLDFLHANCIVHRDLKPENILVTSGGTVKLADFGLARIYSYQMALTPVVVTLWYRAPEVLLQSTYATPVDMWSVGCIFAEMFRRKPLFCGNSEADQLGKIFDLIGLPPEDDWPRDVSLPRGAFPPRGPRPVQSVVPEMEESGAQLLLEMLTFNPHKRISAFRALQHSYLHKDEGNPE

[7] = molecular target: Macrophage colony-stimulating factor 1 receptor (Homo sapiens) (UniProt P07333); conditions: Compound concentration 1000.0 nM
[8] = molecular target: Casein kinase I isoform alpha-like (Homo sapiens) (UniProt Q8N752); conditions: Compound concentration 1000.0 nM
Casein kinase I isoform alpha-like (Homo sapiens), sequence (Q8N752 whole entry, canonical isoform): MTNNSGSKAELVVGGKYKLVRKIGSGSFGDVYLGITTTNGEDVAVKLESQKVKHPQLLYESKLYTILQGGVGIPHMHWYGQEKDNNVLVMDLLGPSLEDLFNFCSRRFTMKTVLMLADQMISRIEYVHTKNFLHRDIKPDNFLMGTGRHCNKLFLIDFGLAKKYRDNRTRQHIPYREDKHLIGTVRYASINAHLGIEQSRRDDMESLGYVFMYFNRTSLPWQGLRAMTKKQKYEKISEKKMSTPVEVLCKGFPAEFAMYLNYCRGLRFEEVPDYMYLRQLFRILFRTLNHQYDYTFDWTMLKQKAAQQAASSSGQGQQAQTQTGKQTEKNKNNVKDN

[9] = molecular target: Death-associated protein kinase 2 (Homo sapiens) (UniProt Q9UIK4); conditions: Compound concentration 1000.0 nM
[10] = system: Epidermal growth factor receptor (Homo sapiens), P00533 [G719C]; conditions: Compound concentration 1000.0 nM
[11] = system: Epidermal growth factor receptor (Homo sapiens), P00533 [UNDEFINED MUTATION]; conditions: Compound concentration 1000.0 nM
[12] = molecular target: Receptor tyrosine-protein kinase erbB-3 (Homo sapiens) (UniProt P21860); conditions: Compound concentration 1000.0 nM
Receptor tyrosine-protein kinase erbB-3 (Homo sapiens), sequence (P21860 whole entry): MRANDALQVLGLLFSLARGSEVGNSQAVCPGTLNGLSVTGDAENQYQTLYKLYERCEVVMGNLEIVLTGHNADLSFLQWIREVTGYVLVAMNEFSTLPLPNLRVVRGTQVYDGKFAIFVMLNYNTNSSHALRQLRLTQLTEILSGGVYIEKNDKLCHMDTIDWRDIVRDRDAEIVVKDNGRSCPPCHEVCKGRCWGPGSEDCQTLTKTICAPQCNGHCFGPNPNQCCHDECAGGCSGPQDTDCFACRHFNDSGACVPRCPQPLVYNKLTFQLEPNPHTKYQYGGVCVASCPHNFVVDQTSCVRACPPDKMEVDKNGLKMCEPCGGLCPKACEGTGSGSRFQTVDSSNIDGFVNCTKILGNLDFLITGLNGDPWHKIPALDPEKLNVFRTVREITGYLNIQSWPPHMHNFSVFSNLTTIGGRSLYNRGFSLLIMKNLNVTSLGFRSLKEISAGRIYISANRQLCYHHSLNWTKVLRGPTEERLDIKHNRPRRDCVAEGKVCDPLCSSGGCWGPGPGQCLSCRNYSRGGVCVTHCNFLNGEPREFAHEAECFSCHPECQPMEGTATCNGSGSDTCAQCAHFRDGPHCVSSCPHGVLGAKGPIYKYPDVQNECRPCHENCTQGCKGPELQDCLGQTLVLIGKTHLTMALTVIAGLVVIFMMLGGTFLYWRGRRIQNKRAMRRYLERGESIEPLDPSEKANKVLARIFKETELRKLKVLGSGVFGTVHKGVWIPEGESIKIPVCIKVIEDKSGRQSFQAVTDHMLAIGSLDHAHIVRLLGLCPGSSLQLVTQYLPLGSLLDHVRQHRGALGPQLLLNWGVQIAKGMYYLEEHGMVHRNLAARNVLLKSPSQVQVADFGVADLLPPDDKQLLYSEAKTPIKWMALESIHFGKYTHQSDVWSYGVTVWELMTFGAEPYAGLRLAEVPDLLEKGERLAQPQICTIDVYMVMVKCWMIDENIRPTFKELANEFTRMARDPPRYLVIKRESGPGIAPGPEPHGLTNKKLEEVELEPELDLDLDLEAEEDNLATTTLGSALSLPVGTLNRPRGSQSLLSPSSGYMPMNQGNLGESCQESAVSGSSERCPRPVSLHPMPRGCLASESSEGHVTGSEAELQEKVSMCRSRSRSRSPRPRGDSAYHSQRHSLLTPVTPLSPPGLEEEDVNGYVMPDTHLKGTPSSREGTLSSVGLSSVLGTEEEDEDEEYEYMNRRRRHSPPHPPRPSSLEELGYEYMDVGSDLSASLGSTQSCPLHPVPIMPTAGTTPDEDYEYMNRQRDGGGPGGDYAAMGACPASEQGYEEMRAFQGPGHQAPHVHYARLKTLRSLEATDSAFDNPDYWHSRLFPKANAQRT

[13] = molecular target: Mitogen-activated protein kinase 1 (Homo sapiens) (UniProt P28482); conditions: Compound concentration 1000.0 nM
[14] = system: Receptor-type tyrosine-protein kinase FLT3 (Homo sapiens), P36888 [UNDEFINED MUTATION]; conditions: Compound concentration 1000.0 nM
[15] = system: Receptor-type tyrosine-protein kinase FLT3 (Homo sapiens), P36888 [R834Q]; conditions: Compound concentration 1000.0 nM
[16] = molecular target: Homeodomain-interacting protein kinase 1 (Homo sapiens) (UniProt Q86Z02); conditions: Compound concentration 1000.0 nM
Homeodomain-interacting protein kinase 1 (Homo sapiens), sequence (Q86Z02 whole entry, looked up): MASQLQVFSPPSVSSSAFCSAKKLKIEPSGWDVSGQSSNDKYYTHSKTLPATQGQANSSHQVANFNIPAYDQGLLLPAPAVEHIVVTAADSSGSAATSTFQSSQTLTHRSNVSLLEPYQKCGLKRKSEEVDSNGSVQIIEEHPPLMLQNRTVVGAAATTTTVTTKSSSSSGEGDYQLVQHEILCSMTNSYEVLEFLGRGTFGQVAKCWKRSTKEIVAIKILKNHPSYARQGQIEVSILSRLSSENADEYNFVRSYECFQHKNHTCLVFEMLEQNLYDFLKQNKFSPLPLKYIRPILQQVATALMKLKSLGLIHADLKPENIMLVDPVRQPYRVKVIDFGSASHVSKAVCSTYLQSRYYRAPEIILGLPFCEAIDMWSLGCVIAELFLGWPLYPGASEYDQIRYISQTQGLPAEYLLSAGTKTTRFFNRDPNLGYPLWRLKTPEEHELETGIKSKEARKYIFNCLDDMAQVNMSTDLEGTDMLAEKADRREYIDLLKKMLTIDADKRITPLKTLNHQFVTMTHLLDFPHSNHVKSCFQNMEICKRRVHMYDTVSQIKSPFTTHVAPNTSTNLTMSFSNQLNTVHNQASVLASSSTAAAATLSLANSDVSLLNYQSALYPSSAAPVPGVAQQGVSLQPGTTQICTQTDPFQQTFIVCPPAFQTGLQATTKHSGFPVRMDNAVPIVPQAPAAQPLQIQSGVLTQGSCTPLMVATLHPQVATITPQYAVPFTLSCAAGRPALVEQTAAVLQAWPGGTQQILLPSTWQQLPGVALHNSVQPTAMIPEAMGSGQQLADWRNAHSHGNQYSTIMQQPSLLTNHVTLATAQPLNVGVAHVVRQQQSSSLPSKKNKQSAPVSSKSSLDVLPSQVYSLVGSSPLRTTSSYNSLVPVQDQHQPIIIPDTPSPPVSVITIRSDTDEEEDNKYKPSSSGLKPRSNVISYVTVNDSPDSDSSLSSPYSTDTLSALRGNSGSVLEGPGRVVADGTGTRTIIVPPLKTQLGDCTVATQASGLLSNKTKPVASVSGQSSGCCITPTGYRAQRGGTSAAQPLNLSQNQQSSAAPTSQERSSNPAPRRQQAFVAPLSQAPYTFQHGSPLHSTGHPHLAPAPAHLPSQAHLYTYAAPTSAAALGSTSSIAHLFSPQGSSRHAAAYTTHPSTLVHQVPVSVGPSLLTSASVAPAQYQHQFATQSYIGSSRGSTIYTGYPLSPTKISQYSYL

[17] = molecular target: Interleukin-1 receptor-associated kinase 3 (Homo sapiens) (UniProt Q9Y616); conditions: Compound concentration 1000.0 nM
[18] = system: Mast/stem cell growth factor receptor Kit (Homo sapiens), P10721 [V559D]; conditions: Compound concentration 1000.0 nM
[19] = molecular target: Mitogen-activated protein kinase kinase kinase 13 (Homo sapiens) (UniProt O43283); conditions: Compound concentration 1000.0 nM
[20] = molecular target: Mitogen-activated protein kinase kinase kinase kinase 2 (Homo sapiens) (UniProt Q12851); conditions: Compound concentration 1000.0 nM
[21] = molecular target: Dual specificity mitogen-activated protein kinase kinase 1 (Homo sapiens) (UniProt Q02750); conditions: Compound concentration 1000.0 nM
Dual specificity mitogen-activated protein kinase kinase 1 (Homo sapiens), sequence (Q02750 whole entry): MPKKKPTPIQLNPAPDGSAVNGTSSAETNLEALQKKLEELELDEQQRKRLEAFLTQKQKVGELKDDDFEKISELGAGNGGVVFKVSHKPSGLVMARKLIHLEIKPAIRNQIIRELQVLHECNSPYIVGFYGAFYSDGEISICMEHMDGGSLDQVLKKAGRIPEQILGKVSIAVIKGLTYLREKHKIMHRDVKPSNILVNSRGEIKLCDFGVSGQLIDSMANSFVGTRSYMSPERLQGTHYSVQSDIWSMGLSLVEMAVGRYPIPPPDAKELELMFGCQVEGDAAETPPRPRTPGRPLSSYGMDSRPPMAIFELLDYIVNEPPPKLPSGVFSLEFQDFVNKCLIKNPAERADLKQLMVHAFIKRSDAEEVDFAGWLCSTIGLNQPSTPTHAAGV

[22] = molecular target: Dual specificity mitogen-activated protein kinase kinase 3 (Homo sapiens) (UniProt P46734); conditions: Compound concentration 1000.0 nM
[23] = molecular target: Maternal embryonic leucine zipper kinase (Homo sapiens) (UniProt Q14680); conditions: Compound concentration 1000.0 nM
Maternal embryonic leucine zipper kinase (Homo sapiens), sequence (Q14680 whole entry, looked up): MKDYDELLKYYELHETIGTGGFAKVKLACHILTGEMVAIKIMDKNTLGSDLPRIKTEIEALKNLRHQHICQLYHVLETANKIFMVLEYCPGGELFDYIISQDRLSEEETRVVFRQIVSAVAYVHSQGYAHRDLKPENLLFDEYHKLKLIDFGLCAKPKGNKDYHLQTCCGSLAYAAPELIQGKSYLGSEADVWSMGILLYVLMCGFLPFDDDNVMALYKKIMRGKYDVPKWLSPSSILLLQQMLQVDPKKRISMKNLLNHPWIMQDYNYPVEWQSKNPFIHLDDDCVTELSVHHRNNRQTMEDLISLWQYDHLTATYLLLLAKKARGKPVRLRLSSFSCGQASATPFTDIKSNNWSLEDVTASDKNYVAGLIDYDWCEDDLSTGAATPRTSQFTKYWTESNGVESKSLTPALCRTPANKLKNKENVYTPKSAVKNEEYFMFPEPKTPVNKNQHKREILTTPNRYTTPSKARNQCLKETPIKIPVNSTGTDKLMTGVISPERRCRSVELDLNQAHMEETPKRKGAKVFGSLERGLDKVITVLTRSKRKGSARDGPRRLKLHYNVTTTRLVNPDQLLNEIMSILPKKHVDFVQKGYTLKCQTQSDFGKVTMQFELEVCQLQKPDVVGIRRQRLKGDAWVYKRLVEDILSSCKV

[24] = system: Hepatocyte growth factor receptor (Homo sapiens), P08581 [M1250T]; conditions: Compound concentration 1000.0 nM
[25] = molecular target: Mitogen-activated protein kinase kinase kinase 10 (Homo sapiens) (UniProt Q02779); conditions: Compound concentration 1000.0 nM
[26] = molecular target: Muscle, skeletal receptor tyrosine-protein kinase (Homo sapiens) (UniProt O15146); conditions: Compound concentration 1000.0 nM
[27] = molecular target: Cyclin-dependent kinase 17 (Homo sapiens) (UniProt Q00537); conditions: Compound concentration 1000.0 nM
[28] = molecular target: Phosphatidylinositol 4-phosphate 3-kinase C2 domain-containing subunit beta (Homo sapiens) (UniProt O00750); conditions: Compound concentration 1000.0 nM
[29] = molecular target: Phosphatidylinositol 3-kinase C2 domain-containing subunit gamma (Homo sapiens) (UniProt O75747); conditions: Compound concentration 1000.0 nM
[30] = system: Phosphatidylinositol 4,5-bisphosphate 3-kinase catalytic subunit alpha isoform (Homo sapiens), P42336 [M1043I]; conditions: Compound concentration 1000.0 nM
[31] = molecular target: Phosphatidylinositol 4,5-bisphosphate 3-kinase catalytic subunit delta isoform (Homo sapiens) (UniProt O00329); conditions: Compound concentration 1000.0 nM
[32] = molecular target: cAMP-dependent protein kinase catalytic subunit alpha (Homo sapiens) (UniProt P17612); conditions: Compound concentration 1000.0 nM
[33] = molecular target: Serine/threonine-protein kinase PknB (Mycobacterium tuberculosis) (UniProt P9WI81); conditions: Compound concentration 1000.0 nM
[34] = molecular target: Protein kinase C iota type (Homo sapiens) (UniProt P41743); conditions: Compound concentration 1000.0 nM
[35] = molecular target: cGMP-dependent protein kinase 2 (Homo sapiens) (UniProt Q13237); conditions: Compound concentration 1000.0 nM
cGMP-dependent protein kinase 2 (Homo sapiens), sequence (Q13237 whole entry): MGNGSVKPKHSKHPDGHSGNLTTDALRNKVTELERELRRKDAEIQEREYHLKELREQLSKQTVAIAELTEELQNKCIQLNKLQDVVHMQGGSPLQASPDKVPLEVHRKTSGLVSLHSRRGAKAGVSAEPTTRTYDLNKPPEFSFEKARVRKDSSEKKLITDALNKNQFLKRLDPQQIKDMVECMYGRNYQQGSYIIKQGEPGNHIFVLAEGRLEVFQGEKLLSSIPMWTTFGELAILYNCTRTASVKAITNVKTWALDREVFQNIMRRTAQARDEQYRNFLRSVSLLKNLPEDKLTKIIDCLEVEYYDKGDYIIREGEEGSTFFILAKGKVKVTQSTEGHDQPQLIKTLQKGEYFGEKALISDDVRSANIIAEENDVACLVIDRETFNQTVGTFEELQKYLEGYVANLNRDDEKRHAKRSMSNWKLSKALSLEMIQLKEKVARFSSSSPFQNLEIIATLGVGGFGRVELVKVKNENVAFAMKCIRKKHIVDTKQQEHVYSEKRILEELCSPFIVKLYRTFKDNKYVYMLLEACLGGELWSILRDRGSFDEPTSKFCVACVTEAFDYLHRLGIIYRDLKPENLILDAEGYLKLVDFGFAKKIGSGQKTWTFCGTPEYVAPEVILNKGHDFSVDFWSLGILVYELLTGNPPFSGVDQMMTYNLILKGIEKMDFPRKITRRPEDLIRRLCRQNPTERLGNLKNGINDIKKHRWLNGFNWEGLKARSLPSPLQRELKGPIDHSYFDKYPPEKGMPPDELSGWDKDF

[36] = molecular target: cAMP-dependent protein kinase catalytic subunit PRKX (Homo sapiens) (UniProt P51817); conditions: Compound concentration 1000.0 nM
[37] = molecular target: Receptor-interacting serine/threonine-protein kinase 2 (Homo sapiens) (UniProt O43353); conditions: Compound concentration 1000.0 nM
[38] = molecular target: Ribosomal protein S6 kinase alpha-4 (Homo sapiens) (UniProt O75676); conditions: Compound concentration 1000.0 nM
[39] = molecular target: Proto-oncogene tyrosine-protein kinase Src (Homo sapiens) (UniProt P12931); conditions: Compound concentration 1000.0 nM
[40] = molecular target: SRSF protein kinase 1 (Homo sapiens) (UniProt Q96SB4); conditions: Compound concentration 1000.0 nM
[41] = molecular target: Tyrosine-protein kinase SYK (Homo sapiens) (UniProt P43405); conditions: Compound concentration 1000.0 nM
[42] = molecular target: Dual specificity protein kinase TTK (Homo sapiens) (UniProt P33981); conditions: Compound concentration 1000.0 nM
[43] = molecular target: 5-hydroxytryptamine receptor 3A (Homo sapiens) (UniProt P46098); conditions: Compound concentration 10.0 uM
[44] = molecular target: D(4) dopamine receptor (Homo sapiens) (UniProt P21917); conditions: Compound concentration 10.0 uM

CCC(=O)N[C@H]1CC[C@@H](C(=O)N(C)c2ccc(-c3nc4ccccc4o3)cc2)C1 [BI 99179]
inactive: residual activity [1] 77% | residual activity [2] 94% | residual activity [3] 95% | residual activity [4] 100% | residual activity [5] 98% | residual activity [6] 78% | residual activity [7] 56% | residual activity [8] 100% | residual activity [9] 100% | residual activity [10] 100% | residual activity [11] 100% | residual activity [12] 100% | residual activity [13] 76% | residual activity [14] 84% | residual activity [15] 100% | residual activity [16] 80% | residual activity [17] 85% | residual activity [18] 94% | residual activity [19] 87% | residual activity [20] 96% | residual activity [21] 89% | residual activity [22] 77% | residual activity [23] 94% | residual activity [24] 92% | residual activity [25] 91% | residual activity [26] 100% | residual activity [27] 100% | residual activity [28] 93% | residual activity [29] 86% | residual activity [30] 100% | residual activity [31] 100% | residual activity [32] 100% | residual activity [33] 86% | residual activity [34] 92% | residual activity [35] 100% | residual activity [36] 91% | residual activity [37] 100% | residual activity [38] 100% | residual activity [39] 93% | residual activity [40] 100% | residual activity [41] 100% | residual activity [42] 100% | inhibition [43] -1.4% | inhibition [44] 11.2%

CCC(=O)N[C@@H]1CC[C@H](C(=O)N(C)c2ccc(-c3nc4ccccc4o3)cc2)C1 [BI 99990]
inactive: residual activity [1] 87% | residual activity [2] 100% | residual activity [3] 100% | residual activity [4] 100% | residual activity [5] 100% | residual activity [6] 97% | residual activity [7] 100% | residual activity [8] 100% | residual activity [9] 100% | residual activity [10] 100% | residual activity [11] 88% | residual activity [12] 100% | residual activity [13] 88% | residual activity [14] 76% | residual activity [15] 100% | residual activity [16] 87% | residual activity [17] 100% | residual activity [18] 100% | residual activity [19] 100% | residual activity [20] 100% | residual activity [21] 100% | residual activity [22] 91% | residual activity [23] 100% | residual activity [24] 100% | residual activity [25] 78% | residual activity [26] 100% | residual activity [27] 100% | residual activity [28] 70% | residual activity [29] 57% | residual activity [30] 100% | residual activity [31] 100% | residual activity [32] 100% | residual activity [33] 78% | residual activity [34] 84% | residual activity [35] 92% | residual activity [36] 100% | residual activity [37] 85% | residual activity [38] 100% | residual activity [39] 100% | residual activity [40] 100% | residual activity [41] 100% | residual activity [42] 100% | inhibition [43] -9.11% | inhibition [44] 16.4%
